SMILES strings stand for the structures. The source made the active and inactive calls. How the calls were made is not given here.

Drawing on PubChem BioAssay AID1421 (Emory University Molecular Libraries Screening Center, 2008), this text covers outcome and PGE2 EC50 with compound for 89 compounds.

For one assay, the target named is Prostaglandin E2 receptor EP2 subtype (Homo sapiens) (UniProt P43116). Put plainly: compounds shifting PGE2 potency at EP2 – cell-based, human EP2, PGE2 EC50 shift, dose response (AID 1421). As to conditions: EP2-expressing cells, PGE2 EC50 shift by compound.
Prostaglandin E2 receptor EP2 subtype (Homo sapiens), sequence (P43116 whole entry, looked up): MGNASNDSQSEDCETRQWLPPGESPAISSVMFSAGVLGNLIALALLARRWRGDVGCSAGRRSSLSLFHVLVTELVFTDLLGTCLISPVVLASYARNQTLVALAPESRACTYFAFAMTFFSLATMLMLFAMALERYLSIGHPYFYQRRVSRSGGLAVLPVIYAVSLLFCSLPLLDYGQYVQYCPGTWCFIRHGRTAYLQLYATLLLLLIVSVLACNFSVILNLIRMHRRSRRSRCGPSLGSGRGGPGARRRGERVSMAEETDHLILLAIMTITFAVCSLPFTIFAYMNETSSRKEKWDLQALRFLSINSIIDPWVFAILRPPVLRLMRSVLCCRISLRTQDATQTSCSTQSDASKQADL
`Cn1nc(-c2ccccc2)c(-c2nc(-c3cccc(C(F)(F)F)c3)no2)c1Cl`: the outcome was active. The same measure, in the same setting: with `N#Cc1cn(-c2ccccc2)nc1-c1cc2ccccc2oc1=O` the entry was “active”; with `CCc1ccccc1NC(=O)/C(=C/c1ccccc1)c1ccccc1`, “active”.

In the case of `O=C1C2C3c4ccccc4C(c4ccccc43)[C@@H]2c2nc3ccccc3n21` (stereo partly drawn), the outcome was active.

`Cn1c(=O)c(NC2CCCCC2)c2c3c(cccc31)C(=O)c1ccccc1-2`: the outcome was active. On the same count and under the same terms, to `OC(COc1ccccc1)Cn1c2ccccc2c2ccccc21` (stereo not drawn) belongs “active”; to `CCOC(=O)c1c(NC(=O)c2ccoc2C)sc(C)c1C`, “active”; to `CC(C)Sc1cc(N2CCOCC2)nc(-c2ccc(Cl)cc2)n1`, “active”. As to `Cc1sc(NC(=O)c2ccccc2F)c(CN2CCCCC2C)c1C` (stereo not drawn), the outcome was active. On the same count and under the same terms, with `COc1ccc(-c2cc(-c3ccccc3)nc(N3CCCC3)n2)cc1OC` the entry was “active”. `CC(C)C(=O)c1cc2c(cc1NC(=O)c1ccccc1)OCCO2`: the result was active. As to `CC(C)CCNC(=O)c1c(N)n(CC2CCCO2)c2nc3ccccc3nc12` (stereo not drawn), the outcome was active.

With `Cc1nc2c(c(C)nn2-c2ccccc2)c(C)c1Cl`, the result was active. Same read-out and setting: to `COc1ccc(-c2nc(NC(C)=O)sc2-c2ccccc2)cc1` belongs “active”.

Still in this assay, the particulars now being: EP2-expressing cells, PGE2 EC50 shift by compound; measured here: PGE2 EC50 at 6.7 uM compound.
On to `CN(Cc1ccccc1)c1nc2c(c(=O)[nH]c(=O)n2C)n1Cc1ccccc1Cl`, for which the PGE2 EC50 with compound was found to be 1.05 nM. On the same count and under the same terms, with `C=C(C)Cn1c(C)cc(C)c(S(=O)(=O)c2cccc(C)c2)c1=O` the figure was 1.28 nM; with `Nc1ccc(Br)cc1C(=O)c1ccccc1`, 0.43 nM; with `COc1cc(C2Oc3cc(C4Oc5cc(O)cc(O)c5C(=O)C4O)ccc3OC2CO)ccc1O` (stereo not drawn), 1.15 nM. Still for that read-out and setting: with `Cc1ccc(Cl)cc1NC(=S)N(Cc1ccco1)C(C)c1cccs1` (stereo not drawn) the figure was 1.51 nM. Same read-out and setting: to `Nc1c(C(=O)NCc2ccccc2)c2nc3ccccc3nc2n1CCCN1CCOCC1` belongs 1.09 nM; to `Cn1nc(-c2ccccc2)c(-c2nc(-c3cccc(C(F)(F)F)c3)no2)c1Cl`, 0.81 nM.

On to `Cc1nc2c(-c3ccccc3)c(C)nn2c(C)c1CCC(=O)N1CCOCC1`, for which the PGE2 EC50 with compound turned out to be 1.09 nM. The same measure, in the same setting: with `CCOc1ccc(NC(=O)CSc2ncnc3c2sc2ccccc23)cc1` the figure was 2.67 nM; with `N#Cc1cn(-c2ccccc2)nc1-c1cc2ccccc2oc1=O`, 0.99 nM.

Regarding `COc1ccccc1N(C(=O)NCc1ccccc1)C1=NCC(C)S1` (stereo not drawn), the PGE2 EC50 with compound worked out at 1.58 nM. Still for that read-out and setting: with `CCC(C)(C)n1nnnc1C(c1ccncc1)N1CCC(Cc2ccccc2)CC1` (stereo not drawn) the figure was 1.85 nM; with `COc1ccc(C2=NN(C(=O)c3cccs3)C(c3ccccc3O)C2)cc1` (stereo not drawn), 0.51 nM. On the same count and under the same terms, with `C=CCn1c(=O)c(C(=O)NCCc2ccccc2)c(O)c2ccccc21` the figure was 2.43 nM; with `CCOC(=O)c1c(C)nc2ccccc2c1-c1ccccc1`, 1.31 nM; with `O=S(=O)(c1ccc(F)c(Cl)c1)N1CCCC1`, 1.02 nM. The same measure, in the same setting: with `CC1(C)C2CCC1(C)C(OC(=O)CC(=O)O)C2` (stereo not drawn) the figure was 0.72 nM; with `CCc1ccccc1NC(=O)/C(=C/c1ccccc1)c1ccccc1`, 1.14 nM. For `C/C(=N\N(Cc1ccccc1)c1ccccc1)c1ccncc1`, the PGE2 EC50 with compound was 1.48 nM.

For `Cc1ccc(O)c(N=Cc2cc(Cc3ccccc3)cc([N+](=O)[O-])c2O)c1`, the PGE2 EC50 with compound is 1.07 nM.

`CC1=C/C(=C(/c2ccc(O)c(C)c2)c2ccccc2C(=O)O)C=CC1=O`: the PGE2 EC50 with compound is 0.96 nM. For `CCCn1c(C)nc2c(c1=O)c1nc3ccccc3nc1n2CCC1=CCCCC1`, the PGE2 EC50 with compound was determined as 1.42 nM.

On to `CCCCn1c(-c2csc(CCC)c2)n[nH]c1=S`, for which the PGE2 EC50 with compound came to 1.28 nM. On the same count and under the same terms, with `Nc1ccccc1CCCC(=O)O` the figure was 0.98 nM; with `CN(CC(=O)Nc1ccccc1Oc1ccccc1)Cc1ccccc1F`, 2.47 nM. The same measure, in the same setting: to `O=C1C2C3c4ccccc4C(c4ccccc43)[C@@H]2c2nc3ccccc3n21` (stereo partly drawn) belongs 0.7 nM; to `CCOC(=O)c1c(CC(C)C)csc1NC(=O)CCl`, 1.13 nM; to `Cc1ccccc1OCc1nc2ccccc2c(=O)n1/N=C/c1ccco1`, 1.02 nM.

Take `O=C(CN1CCCCC1)N1c2ccccc2Sc2ccc(C(F)(F)F)cc21`: the PGE2 EC50 with compound was determined as 1.45 nM. Still for that read-out and setting: with `S=c1[nH]nc(C23CC4CC(CC(C4)C2)C3)n1Cc1ccco1` the figure was 2.45 nM.

On to `c1ccc(Oc2nc3ccccc3n3cccc23)cc1`, for which the PGE2 EC50 with compound turned out to be 0.86 nM. Take `COc1cnc(N(C)C)nc1Sc1cccc(Cl)c1`: the PGE2 EC50 with compound came to 1.13 nM. On the same count and under the same terms, to `CC(C)Oc1ccc(/C=C(/NC(=O)c2ccccc2)C(=O)NCCC(=O)O)cc1` belongs 0.92 nM. Still for that read-out and setting: with `CC(=O)CSc1nc(-c2cccs2)c(C#N)c(=O)[nH]1` the figure was 2.81 nM.

Take `CC1CCCCN1C(=O)/C(=C\c1ccccc1)c1ccccc1` (stereo not drawn): the PGE2 EC50 with compound was found to be 2.61 nM. With `CNC(=O)NC(=O)CSc1nc(-c2cccs2)c(C#N)c(=O)[nH]1`, the PGE2 EC50 with compound was 3.08 nM. Still for that read-out and setting: to `O=c1cc(N2CCCCC2)c(-c2ccccc2)nn1Cc1cccc(Cl)c1` belongs 0.32 nM; to `O=C(O)c1cccc(NN=C2c3ccccc3-c3ccccc32)c1`, 0.8 nM; to `Cc1ccc(NCc2n[nH]c(=S)n2Cc2ccccc2)cc1Cl`, 1.2 nM. Regarding `Cn1c(=O)c(NC2CCCCC2)c2c3c(cccc31)C(=O)c1ccccc1-2`, the PGE2 EC50 with compound stood at 0.55 nM. For `O=C(Nc1ccccc1)c1nn(-c2cccc(C(F)(F)F)c2)ccc1=O`, the PGE2 EC50 with compound stood at 2.72 nM.

Consider `COc1ccc(-c2nnc3ccc(SCC(=O)Nc4nc5ccccc5s4)nn23)cc1OC`, for which the PGE2 EC50 with compound was found to be 0.67 nM. The same measure, in the same setting: to `OC(COc1ccccc1)Cn1c2ccccc2c2ccccc21` (stereo not drawn) belongs 1.4 nM.

For the compound `CC1CCN(C(C)C(=O)Nc2ccccc2-c2ccccc2)CC1` (stereo not drawn), the PGE2 EC50 with compound stood at 1.27 nM. Turning to `O=C(CSc1nc2ccccc2o1)Nc1ccccc1N1CCCCCC1`, the PGE2 EC50 with compound is 0.78 nM. On to `COc1ccc(OC)c(/C=C/C(=O)N2CCCc3ccccc32)c1`, for which the PGE2 EC50 with compound is 1.13 nM.

In the case of `N#CC1=C(N)SC(N)=C(C#N)C1c1ccoc1`, the PGE2 EC50 with compound came out at 2.61 nM. Still for that read-out and setting: with `O=c1cc(N2CCCCC2)c(-c2ccccc2)nn1Cc1cccc(F)c1` the figure was 0.33 nM. Still for that read-out and setting: with `O=c1[nH]c(CSc2ncc(-c3ccc(F)cc3)n2Cc2ccco2)nc2ccccc12` the figure was 0.71 nM. For `Cc1ccc(-n2c(Cc3cccc4ccccc34)n[nH]c2=S)c(C)c1`, the PGE2 EC50 with compound came out at 0.68 nM. Same read-out and setting: with `Cc1ccsc1-c1n[nH]c(=S)n1C1CCCCC1` the figure was 1.2 nM; with `CCOC(=O)c1c(NC(=O)c2ccoc2C)sc(C)c1C`, 0.94 nM; with `c1ccn(-c2ncnc3sc4c(c23)CCCC4)c1`, 1.45 nM. Take `CCN1C(=O)/C(=C2/C=CC=CN2C)SC1=S`: the PGE2 EC50 with compound worked out at 1.64 nM. Still for that read-out and setting: with `O=P(c1ccccc1)(c1ccccc1)c1nc(-c2ccccc2)oc1NCc1ccccc1` the figure was 0.33 nM; with `Brc1ccc(-c2ccc(/C=N/Nc3nc(N4CCOCC4)nc(N4CCOCC4)n3)o2)cc1`, 1.01 nM. The same measure, in the same setting: to `CC(C)Sc1cc(N2CCOCC2)nc(-c2ccc(Cl)cc2)n1` belongs 1.02 nM. As to `CCOC(=O)C1=C(CC)OC(N)=C(C#N)C1c1ccsc1` (stereo not drawn), the PGE2 EC50 with compound was 1.33 nM. The same measure, in the same setting: with `CCCCOc1ccccc1Cn1c(=O)oc2ccccc21` the figure was 0.81 nM. On the same count and under the same terms, with `COc1ccc(-c2nn3c(-c4ccccc4)nnc3s2)cc1` the figure was 0.66 nM; with `Cc1sc(NC(=O)c2ccccc2F)c(CN2CCCCC2C)c1C` (stereo not drawn), 0.88 nM. As for `CCCCOc1c(Br)cc(/C=N/O)cc1OCC`, the PGE2 EC50 with compound was found to be 0.93 nM. The same measure, in the same setting: with `Cc1cc(SCCC(=O)O)nc2c(C)cccc12` the figure was 1.01 nM. The same measure, in the same setting: with `CCOc1cccc(CNc2ccc(O)cc2)c1OCc1ccccc1Cl` the figure was 0.62 nM; with `C#CCSc1nc(Cc2ccc(Cl)cc2)nc2ccccc12`, 1.22 nM. Same read-out and setting: with `CC12CCCC(O)(C1)C1CC(C)(C)C1CC2` (stereo not drawn) the figure was 1.55 nM; with `COc1ccc(-c2cc(-c3ccccc3)nc(N3CCCC3)n2)cc1OC`, 1.12 nM; with `CC(C)C(=O)c1cc2c(cc1NC(=O)c1ccccc1)OCCO2`, 0.88 nM. For the compound `CC(C)CCNC(=O)c1c(N)n(CC2CCCO2)c2nc3ccccc3nc12` (stereo not drawn), the PGE2 EC50 with compound stood at 0.95 nM. On the same count and under the same terms, with `CN(C)c1ncc(S(=O)(=O)c2ccccc2)c(-c2ccccc2Cl)n1` the figure was 0.72 nM; with `CCOc1cc(/C=N/NC(N)=O)ccc1OC(=O)c1ccc(C)cc1`, 1.52 nM. Still for that read-out and setting: to `Cc1ccccc1/C=C/c1nc2ccccc2c(=O)n1CCc1ccccc1` belongs 1.38 nM; to `CCOC(=O)c1c(-c2ccc(-c3ccccc3)cc2)csc1NC(=O)CCN1CCOCC1`, 1.34 nM.

Regarding `Cc1cccnc1N(C(=O)Nc1cccc(Cl)c1)C1=NCC(C)(C)S1`, the PGE2 EC50 with compound is 1.22 nM. The same measure, in the same setting: with `CCCOP(=O)(OCCC)C(Nc1cccc(C(F)(F)F)c1)c1ccc(C)cc1` (stereo not drawn) the figure was 1.37 nM.

As for `O=C(NCc1ccco1)c1ccc(=O)[nH]n1`, the PGE2 EC50 with compound worked out at 1.06 nM. `CCCCn1c(-c2csc3c2CCCC3)n[nH]c1=S`: the PGE2 EC50 with compound is 1.25 nM.

As for `Cc1nc2c(c(C)nn2-c2ccccc2)c(C)c1Cl`, the PGE2 EC50 with compound came out at 0.69 nM. On the same count and under the same terms, with `CCc1c(-c2n[nH]c(=S)n2Cc2ccccc2)csc1C` the figure was 1.22 nM.

Turning to `Cn1c(=O)c2c(nc(SCC(=O)c3cccs3)n2Cc2ccc(F)cc2)n(C)c1=O`, the PGE2 EC50 with compound was determined as 0.99 nM. Still for that read-out and setting: with `COc1ccc(-c2nc(NC(C)=O)sc2-c2ccccc2)cc1` the figure was 1.01 nM; with `[N-]=[N+]=Nc1ccc(C(=O)CSC[C@H](NC(=O)CC[C@H](N)C(=O)O)C(=O)NCC(=O)O)cc1`, 0.8 nM; with `CC1CCN(c2nc(-c3ccncc3)nc3ccccc23)CC1`, 1 nM. Still for that read-out and setting: with `O=C(Nc1cccc2cccnc12)c1ccc(Br)o1` the figure was 1.22 nM; with `Cc1noc(C)c1CSc1ncnc2sc3c(c12)CCCCC3`, 1.22 nM; with `C=CCc1cc(C=O)cc(OC)c1OCc1c(Cl)cccc1Cl`, 0.59 nM. The same measure, in the same setting: with `CC1(C)C=Cc2c(c3c(c4c(=O)c(-c5ccc(O)cc5)coc24)OC(C)(C)CC3)O1` the figure was 1.11 nM; with `CC(C)c1nc(N2CCN(C(=O)c3ccccc3)CC2)c(C#N)c2c1COC(C)(C)C2`, 0.97 nM. `CC(C)CCn1c(O)c(N=NC(=O)c2ccco2)c2ccccc21`: the PGE2 EC50 with compound was determined as 1.03 nM.
